Laboratory results published in publication PMC5046105, “Improved affinity at the cost of decreased specificity: a recurring theme in PDZ-peptide interactions” (Scientific Reports, 2016).
Ends that are not written are not given here.

Tests used:
[1] = test system: PDZØ9; experiment: Proteomic peptide-phage display (ProP-PD) selection, PDZØ9 as bait; parameters: species or system human; details: number of this peptide among 76 sequenced binding clones after round three of ProP-PD selection
Procedure: (§1) The peptide-phage library used in the selections consisted of 50,549 heptapeptides representing the C-terminal sequences of the human proteome, fused to the C-terminus of the major coat protein pVIII of the M13 phage. This library was developed and successfully used for the rapid isolation of potential cellular PDZ domain targets, as previously reported.
(§2) Individual binding clones were isolated and sequenced (see Table 1).
(§3) Peptide-phage selections against PDZØ9 and pWT PDZ2 were performed with a previously developed library of 50549 heptapeptides, representing all of the C-terminal sequences in the human proteome. Peptides are fused to the C-terminus of the gene-8 major coat protein of M13 phage and hereby referred to as the naïve peptide library. Each of the two selections was performed twice. First, the two lipoyl-PDZ proteins were used to coat 96-well Maxisorp microtiter plates (NUNC) by incubation overnight at 4 °C (15 μg of protein in 100 μl of PBS per well). For the first round of selection, two wells were used for each PDZ, whereas a single well was used for the following selections. In parallel, wells were coated with lipoyl domain alone in order to remove nonspecific binders by a preselection step. The following day, wells were blocked with 200 μl of 0.5% BSA in PBS for 1 h at 4 °C, and washed four times with PT buffer [PBS, 0.05% Tween-20] before addition of phages. Phage pools representing the naïve peptide library were diluted 50-fold in PBS, precipitated with PEG/NaCl [4% PEG-8000 and 0.5 M NaCl] by incubation for 10 min on ice, pelleted by centrifugation (10 min, 16000 × g), and resuspended in PBS. For each selection round, 100 μl of resuspended phage was added to the preselection wells and incubated for 1 h at 4 °C before transfer to the target wells in which they were incubated for 2 h at 4 °C. The wells were washed five times with PT buffer and bound phages were eluted by direct infection of bacteria through the addition of 100 μl log-phase Escherichia coli Omnimax (Invitrogen) in 2TY, followed by 30 min incubation at 37 °C with shaking. Phage production was initiated by the addition of M13K07 helper phage (New England Biolabs) to a final concentration of 10^10 phage/ml and continued incubation at 37 °C for 45 min. The cultures were then transferred to 10 ml 2TY containing 100 μg/ml carbenicillin, 30 μg/ml kanamycin, and 1 mM IPTG, and shaken overnight at 37 °C. The bacteria were pelleted by centrifugation (10 min, 5300 × g), and the phage-containing supernatant was transferred to a new tube in which phages were precipitated with PEG/NaCl as described above, pelleted by centrifugation (15 min, 5300 × g), and resuspended in 1 ml of PBS. The resuspended phages, hereby-denoted Øout, were then used for the next round of selection. A total of five rounds were carried out and the enrichment of phages specific for the target was monitored by analysing aliquots of Øout in a phage ELISA performed as described below. For each of the five rounds of the respective selection, 10 μg of target protein and lipoyl domain were individually coated in parallel wells using the same type of plate, procedure, and blocking the following day, as described for the selection rounds above. When the 200 μl of blocking solution had been aspirated, 100 μl of resuspended phage was added and incubated for 30 min at 4 °C.

[2] = test system: pWT PDZ2; experiment: Proteomic peptide-phage display (ProP-PD) selection, pWT PDZ2 as bait; parameters: species or system human; details: number of this peptide among 71 sequenced binding clones after round three of ProP-PD selection
Procedure: as §1, §2, §3

[3] = target: pWT PDZ2 L391F (human) (UniProt Q12959); experiment: ITC; PGKETQL peptide titrated into pWT PDZ2 L391F; iTC200, 10 °C, 50 mM potassium phosphate, pH 7.5; 1:1 model; duplicate titrations, average parameters
Chain of pWT PDZ2 L391F (human) (Q12959 311-407, stated change not applied): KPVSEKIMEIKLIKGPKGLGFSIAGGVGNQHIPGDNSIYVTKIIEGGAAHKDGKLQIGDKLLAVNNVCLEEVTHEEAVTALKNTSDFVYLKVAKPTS

[4] = target: PDZØ9, engineered variant (L391F/K392M) of pWT SAP97 PDZ2 (human) (UniProt Q12959); experiment: stopped-flow spectroscopy
Chain of PDZØ9, engineered variant (L391F/K392M) of pWT SAP97 PDZ2 (human) (Q12959 311-407, stated change not applied): as the sequence (Q12959 311-407, stated change not applied) above

[5] = target: pWT PDZ2 L391F (human) (UniProt Q12959); experiment: stopped-flow spectroscopy
[6] = target: pWT PDZ2 K392M (human) (UniProt Q12959); experiment: stopped-flow spectroscopy
Chain of pWT PDZ2 K392M (human) (Q12959 311-407, stated change not applied): as the sequence (Q12959 311-407, stated change not applied) above

[7] = target: Pseudo wild type SAP97 PDZ2 (second PDZ domain of synapse associated protein 97, I342W/C378A) (human) (UniProt Q12959); experiment: stopped-flow spectroscopy
Chain of Pseudo wild type SAP97 PDZ2 (second PDZ domain of synapse associated protein 97, I342W/C378A) (human) (Q12959 311-407, stated change not applied): as the sequence (Q12959 311-407, stated change not applied) above

Molecule	Prevalence, PDZØ9 (76) [1]	Prevalence, pWT PDZ2 (71) [2]	other results
AGKTTIL	1		
AGRETTV		1	
IKTETTV	1	7	
KGTETTL	1		
KIKETTV	1	3	
RAISTDV	2		
WKHETTV	4	5	
WKNETTV	1	1	
WKSETTV	1	1	
YKKETPL	1		
Ac-PGKETQL [PGKETQL peptide (C-terminus of SO1C1_HUMAN)]			Kd [3]: 310 nM; stoichiometry N [3]: 0.76; koff [4]: 3.9 s⁻¹; kon [4]: 1.6e+07 M⁻¹ s⁻¹; koff [5]: 5 s⁻¹; kon [5]: 2e+07 M⁻¹ s⁻¹; koff [6]: 48 s⁻¹; kon [6]: 1.8e+07 M⁻¹ s⁻¹; koff [7]: 51 s⁻¹; kon [7]: 1.8e+07 M⁻¹ s⁻¹
